Biological target: T1, human V1A receptor (Homo sapiens, UniProt P37288)
T1 construct: expressed in transfected cells; host or cells: CHO cells (CHO-hV1A line provided by Marc Thibonnier, Case Western Reserve University)
Test: V1A filter binding assay ([3H]-AVP binding to CHO-hV1A membranes)
Conditions: Ki by Cheng-Prusoff
Description: 1.0 V1A Filter Binding Assay
Receptor binding assays were performed on cellular membranes prepared from CHO cells stably expressing the human V1A receptor, (CHO-hV1A). The CHO-hV1A cell line was kindly provided under a licensing agreement by Marc Thibonnier, Dept. of Medicine, Case Western Reserve University School of Medicine, Cleveland, Ohio. CHO-hV1A cells were routinely maintained at 37° C. in humidified atmosphere with 5% CO2 in DMEM/Hams F12 nutrient mix supplemented with 10 % fetal bovine serum, 2 mM L-glutamine, 15 mM HEPES and 400 μg/ml G418. For bulk production of cell pellets, adherent CHO-hV1A cells were grown to confluency of 90-100% in 850 cm^2 roller bottles containing a medium of DMEM/Hams F12 Nutrient Mix supplemented with 10% fetal bovine serum, 2 mM L-glutamine and 15 mM HEPES. Confluent CHO-hV1A cells were washed with phosphate-buffered saline (PBS), harvested into ice cold PBS and centrifuged at 1,000 rpm. Cell pellets were stored at −80° C. until use. Cell pellets were thawed on ice and homogenised in membrane preparation buffer consisting of 50 mM Tris-HCl, pH 7.4, 5 mM MgCl2 and supplemented with a protease inhibitor cocktail, (Roche). The cell homogenate was centrifuged at 1000 rpm, 10 min, 4° C. and the supernatant was removed and stored on ice. The remaining pellet was homogenised and centrifuged as before. The supernatants were pooled and centrifuged at 25,000× g for 30 min at 4° C. The pellet was resuspended in freezing buffer consisting of 50 mM Tris-HCl, pH 7.4, 5 mM MgCl2 and 20% glycerol and stored in small aliquots at −80° C. until use. Protein concentration was determined using Bradford reagent and BSA as a standard.
Protein linearity followed by saturation binding studies were performed on each new batch of membrane. Membrane concentration was chosen that gave specific binding on the linear portion of the curve. Saturation binding studies were then performed using various concentrations of [^3H]-arginine vasopressin, [^3H]-AVP (0.05 nM-100 nM) and the Kd and Bmax determined.
Compounds were tested for their effects on [^3H]-AVP binding to CHO-hV1A membranes, (^3H-AVP; specific activity 65.5 Ci/mmol; NEN Life Sciences). Compounds were solubilised in dimethylsulfoxide (DMSO) and diluted to working concentration of 10% DMSO with assay buffer containing 50 mM Tris-HCL pH 7.4, 5 mM MgCl2 and 0.05% BSA. […] The binding reaction was initiated by the addition of 200 μl membrane and the plates were gently shaken for 60 min at room temperature. The reaction was terminated by rapid filtration using a Filtermate Cell Harvester (Packard Instruments) through a 96-well GF/B UniFilter Plate which had been pre-soaked in 0.5% polyethyleneimine to prevent peptide sticking. The filters were washed three times with 1 ml ice cold wash buffer containing 50 mM Tris-HCL pH 7.4 and 5 mM MgCl2. The plates were dried and 50 μl Microscint-0 (Packard instruments) was added to each well. The plates were sealed and counted on a TopCount Microplate Scintillation Counter (Packard Instruments). Non-specific binding (NSB) was determined using 1 μM unlabelled d(CH2)5Tyr(Me)AVP ([β-mercapto-β,β-cyclopentamethylenepropionyl,0-Me-Tyr^2,Arg^8]-vasopressin) (βMCPVP), (Sigma). The radioligand binding data was analysed using a four parameter logistic equation with the min forced to 0%. The slope was free fitted and fell between −0.75 and −1.25 for valid curves. Specific binding was calculated by subtracting the mean NSB cpm from the mean Total cpm. For test compounds the amount of ligand bound to the receptor was expressed as % bound=(sample cpm−mean NSB cpm)/specific binding cpm ×100. The % bound was plotted against the concentration of test compound and a sigmoidal curve was fitted. The inhibitory dissociation constant (Ki) was calculated using the Cheng-Prusoff equation: Ki=IC50/(1+[L]/Kd) where [L] is the concentration of ligand present in the well and Kd is the dissociation constant of the radioligand obtained from Scatchard plot analysis. […]

T1 sequence (P37288 whole entry): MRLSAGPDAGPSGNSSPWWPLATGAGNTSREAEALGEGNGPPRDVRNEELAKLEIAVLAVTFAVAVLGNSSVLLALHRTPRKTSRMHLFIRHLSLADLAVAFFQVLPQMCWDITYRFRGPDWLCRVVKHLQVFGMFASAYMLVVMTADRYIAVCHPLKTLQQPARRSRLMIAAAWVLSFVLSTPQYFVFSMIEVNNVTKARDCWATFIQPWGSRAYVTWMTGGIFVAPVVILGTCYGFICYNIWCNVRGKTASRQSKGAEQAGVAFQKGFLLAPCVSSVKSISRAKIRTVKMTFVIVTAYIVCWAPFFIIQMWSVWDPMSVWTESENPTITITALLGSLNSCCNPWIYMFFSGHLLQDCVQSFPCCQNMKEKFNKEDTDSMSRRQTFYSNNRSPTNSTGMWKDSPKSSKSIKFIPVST

Ki	Compound
3.19 nM	Cc1nnc(N2CCC(Oc3ccccc3)CC2)n1-c1ccc(Cl)cc1 [Example 26, 1-[4-(4-Chloro-phenyl)-5-methyl-4H-[1,2,4]triazole-3-yl]-4-phenoxy-piperidine]
1.28 nM	COCc1nnc(N2CCC(Oc3ccccn3)CC2)n1-c1ccc(Cl)cc1 [Example 33, 2-({1-[4-(4-Chlorophenyl)-5-(methoxymethyl)-4H-1,2,4-triazol-3-yl]piperidin-4-yl}oxy)pyridine]
1.06 nM	Clc1ccc(-n2c(Cn3nccn3)nnc2N2CCC(Oc3ncccn3)CC2)cc1 [Example 34, 2-{1-[4-(4-Chloro-phenyl)-5-[1,2,3]triazole-2-ylmethyl-4H-[1,2,4]triazole-3-yl]-piperidin-4-yloxy}-pyrimidine]
0.96 nM	CCOCc1nnc(N2CCC(Oc3ncccn3)CC2)n1-c1ccc(Cl)cc1 [Example 38]
0.5 nM	Cc1nnc(N2CCC(N(C)c3ccccn3)CC2)n1-c1ccc(Cl)cc1 [Example 40, N-{1-[4-(4-Chlorophenyl)-5-methyl-4H-1,2,4-triazol-3-yl]-piperidin-4-yl}-N-methylpyridin-2-amine]
1.49 nM	Cc1nnc(N2CCC(N(C)c3ncccn3)CC2)n1-c1ccc(Cl)cc1 [Example 41, N-{1-[4-(4-Chlorophenyl)-5-methyl-4H-1,2,4-triazol-3-yl]-piperidin-4-yl}-N-methylpyrimidin-2-amine]

Source: patent publication US20070225333A1, “3-Heterocyclyl-4-Phenyl-Triazole Derivatives as Inhibitors of the Vasopressin Via Receptor” (priority 2004, published 2007)
